Assay results reported in PubChem BioAssay (NCI).
Where “and” joins values, the source holds several entries; their conditions need not be identical. Equal values may be shown once.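 96-well plates; 48 h exposure; 5 concentrations. Endpoints by linear interpolation between flanking doses. Not reached: highest tested concentration assigned. GI50: concentration for 50% inhibition of growth. The concentration for full growth arrest is given as TGI.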

What was measured:
Assay in all cases: inhibition of tumour cell growth, NCI panel, 48 h
[1] = test system: 786-0 renal
[2] = test system: HCT-116 colon
[3] = test system: OVCAR-4 ovarian
[4] = test system: RXF 393 renal
[5] = test system: SF-268 CNS
[6] = test system: SF-295 CNS
[7] = test system: SK-MEL-2 melanoma
[8] = test system: SNB-19 CNS
[9] = test system: UACC-62 melanoma
[10] = test system: UO-31 renal

Cc1cc(C)c(NC(=O)c2sc3nc4c(cc3c2N)CN(Cc2ccccc2)CC4)c(C)c1
GI50 [1]: 3.48 µM | TGI [1]: > 100 µM | GI50 [2]: 2.89 µM | TGI [2]: 16 µM | GI50 [3]: 6.72 µM | TGI [3]: > 100 µM | GI50 [4]: 2.45 µM | TGI [4]: 18.5 µM | GI50 [5]: 6.93 µM | TGI [5]: 64.8 µM | GI50 [6]: 1.89 µM | TGI [6]: 64.7 µM | GI50 [7]: 5.59 µM | TGI [7]: > 100 µM | GI50 [8]: 7.21 µM | TGI [8]: > 100 µM | GI50 [9]: 3.9 µM | TGI [9]: 42.4 µM | GI50 [10]: 4.78 µM | TGI [10]: 93.9 µM

COC(=O)/C=C1\CCC(C)O1 (stereo not given)
TGI [1]: > 100 µM | TGI [2]: > 100 µM | TGI [3]: > 100 µM | TGI [4]: > 100 µM | TGI [5]: > 100 µM | TGI [6]: > 100 µM | TGI [7]: > 100 µM | TGI [8]: > 100 µM | TGI [9]: > 100 µM | TGI [10]: > 100 µM

O=C(O)CC(NC(=O)CP(=O)(O)O)C(=O)O (stereo not given)
GI50 [1]: 71 µM | TGI [1]: > 6000 µM | GI50 [2]: 54.6 µM | TGI [2]: > 10000 µM | TGI [3]: > 10000 µM | GI50 [4]: 90.5 µM | TGI [4]: > 10000 µM | GI50 [5]: 95.8 µM | TGI [5]: > 10000 µM | TGI [6]: > 10000 µM | TGI [7]: > 10000 µM | GI50 [8]: 72.6 µM | TGI [8]: > 10000 µM | TGI [9]: 6640 µM | TGI [10]: > 10000 µM

CC(C)N(CCn1c2c3ccccc3ccc2c2oc(=O)c3ccccc3c21)C(C)C
TGI [1]: > 100 µM | TGI [2]: > 100 µM | TGI [3]: > 100 µM | TGI [4]: > 100 µM | TGI [5]: > 100 µM | TGI [6]: > 95.1 µM | TGI [7]: > 100 µM | TGI [8]: > 100 µM | TGI [9]: > 100 µM | TGI [10]: > 100 µM

Cc1ccc(NC(=O)CSc2nnc(-c3ccc(N=Cc4ccc(Cl)cc4)cc3)o2)cc1
TGI [1]: > 100 µM | TGI [2]: > 100 µM | TGI [3]: > 100 µM | TGI [4]: > 100 µM | TGI [5]: > 100 µM | TGI [6]: > 100 µM | TGI [7]: > 100 µM | TGI [8]: > 100 µM | TGI [9]: > 100 µM | TGI [10]: > 100 µM

O[C@H](c1cc(C(F)(F)F)nc2c(C(F)(F)F)cccc12)[C@@H]1CCCCN1
GI50 [1]: 4.68 µM | TGI [1]: 12.5 µM | GI50 [2]: 2.3 µM | TGI [2]: 5.44 µM | GI50 [3]: 4.45 µM | TGI [3]: 15 µM | GI50 [4]: 3.82 µM | TGI [4]: 13.5 µM | GI50 [5]: 3.54 µM | TGI [5]: 15 µM | GI50 [6]: 2.08 µM | TGI [6]: 5.36 µM | GI50 [7]: 3.26 µM | TGI [7]: 11.9 µM | GI50 [8]: 7.19 µM | TGI [8]: 20.9 µM | GI50 [9]: 5.9 µM | TGI [9]: 17.5 µM | GI50 [10]: 1.88 µM | TGI [10]: 9.48 µM

Cc1cc(NS(=O)(=O)c2ccc(Nc3c4ccccc4nc4c(C(=O)N5CCN(CCO)CC5)ccc(Cl)c34)cc2)no1
TGI [1]: > 100 µM | TGI [2]: > 100 µM | TGI [3]: > 100 µM | TGI [4]: > 100 µM | TGI [5]: > 100 µM | TGI [6]: > 100 µM | TGI [7]: > 100 µM | TGI [8]: > 100 µM | TGI [9]: > 100 µM | TGI [10]: > 100 µM

Cc1cc(C)nc(NS(=O)(=O)c2ccc(NC(=O)c3cccc4c(Nc5ccc(S(N)(=O)=O)cc5)c5ccccc5nc34)cc2)n1
TGI [1]: > 100 µM | TGI [2]: 21.7 µM | TGI [3]: > 85.5 µM | TGI [4]: > 81.8 µM | TGI [5]: > 67.4 µM | TGI [6]: > 100 µM | TGI [7]: > 31.1 µM | TGI [8]: > 100 µM | TGI [9]: > 100 µM | TGI [10]: > 100 µM

CC(=O)O[C@H]1CCC2[C@@H]3CCC4Nc5[nH]ncc5C[C@]4(C)C3CC[C@@]21C (stereo not given in full)
TGI [1]: > 100 µM | TGI [2]: > 100 µM | TGI [3]: > 100 µM | TGI [4]: > 100 µM | TGI [5]: > 100 µM | TGI [6]: > 100 µM | TGI [7]: > 100 µM | TGI [8]: > 100 µM | TGI [9]: 60.3 µM | TGI [10]: > 100 µM

N=C(N)c1ccc2nc(-c3cc(CC(=O)N[C@@H](CC(=O)O)C(=O)O)cc(-c4cc(S(N)(=O)=O)ccc4O)c3O)[nH]c2c1
GI50 [1]: > 100 µM | TGI [1]: > 100 µM | GI50 [2]: > 100 µM | TGI [2]: > 100 µM | GI50 [3]: > 100 µM | TGI [3]: > 100 µM | GI50 [4]: > 100 µM | TGI [4]: > 100 µM | GI50 [5]: > 100 µM | TGI [5]: > 100 µM | GI50 [6]: > 100 µM | TGI [6]: > 100 µM | GI50 [7]: > 100 µM | TGI [7]: > 100 µM | GI50 [8]: > 100 µM | TGI [8]: > 100 µM | GI50 [9]: > 100 µM | TGI [9]: > 100 µM | GI50 [10]: > 100 µM | TGI [10]: > 100 µM

Cn1cc(C2=C(c3cccc(Br)c3)C(=O)NC2=O)c2ccccc21
GI50 [1]: 12.1 µM | TGI [1]: > 25 µM | GI50 [2]: 7.62 µM | TGI [2]: > 25 µM | GI50 [3]: 12.6 µM | TGI [3]: > 25 µM | GI50 [4]: 8.3 µM | TGI [4]: > 25 µM | GI50 [5]: 15.5 µM | TGI [5]: > 25 µM | GI50 [6]: 12.9 µM | TGI [6]: > 25 µM | GI50 [7]: 11.6 µM | TGI [7]: > 21.6 µM | GI50 [8]: > 25 µM | TGI [8]: > 25 µM | GI50 [9]: 11.3 µM | TGI [9]: > 25 µM | GI50 [10]: 6.42 µM | TGI [10]: > 25 µM

CC(C)(S)C(N)C(=O)O (stereo not given)
GI50 [1]: > 5000 µM | TGI [1]: > 5000 µM | GI50 [2]: 1860 µM | TGI [2]: > 5000 µM | GI50 [3]: > 5000 µM | TGI [3]: > 5000 µM | GI50 [4]: > 5000 µM | TGI [4]: > 5000 µM | GI50 [5]: 1740 µM | TGI [5]: > 5000 µM | GI50 [6]: 963 µM | TGI [6]: 3660 µM and > 100 µM | GI50 [7]: 2390 µM | TGI [7]: > 5000 µM | GI50 [8]: 3370 µM | TGI [8]: > 5000 µM | GI50 [9]: 4760 µM | TGI [9]: > 5000 µM | GI50 [10]: > 5000 µM | TGI [10]: > 5000 µM
